How the values were obtained:
Assay type in all cases: in vivo
[1] = system: Echinochloa crus-galli (ECHCG); assay: Post-emergence Test, ECHCG; conditions: sprayed after 8 days cultivation, 1000 g/ha, evaluated after 13 days
Method: (§1) Seeds of a variety of test species are sown in standard soil in pots (Amaranthus retoflexus (AMARE), Solarium nigrum (SOLNI), Setaria faberi (SETFA), Lolium perenne (LOLPE), Echinochloa crus-galli (ECHCG), Ipornoea hederacea (IPOHE)). After 8 days cultivation under controlled conditions in a glasshouse (at 24° C./16° C., day/night; 14 hours light; 65% humidity), the plants are sprayed with an aqueous spray solution derived from the formulation of the technical active ingredient in acetone/water (50:50) solution containing 0.5% Tween 20 (polyoxyethylene sorbitan monolaurate, CAS RN 9005-64-5). Compounds are applied at 1000 g/ha unless otherwise stated. The test plants are then grown in a glasshouse under controlled conditions in a glasshouse (at 24° C./16° C., day/night; 14 hours light; 65% humidity) and watered twice daily. After 13 days the test is evaluated for the percentage damage caused to the plant. The biological activities are shown in the following table on a five-point scale (5=81-100%; 4=61-80%; 3=41-60%; 2=21-40%; 1=10-20%; 0=0%; −=not tested).

[2] = system: Amaranthus retoflexus (AMARE); assay: Pre-emergence Test, AMARE; conditions: 1000 g/ha, evaluated after 13 days
[3] = system: Echinochloa crus-galli (ECHCG); assay: Pre-emergence Test, ECHCG; conditions: 1000 g/ha, evaluated after 13 days
ABUTH [4] = assay: Pre-emergence Test, ABUTH; conditions: 1000 g/ha, evaluated after 13 days
Setaria faberi (SETFA) [5] = assay: Pre-emergence Test, SETFA; conditions: 1000 g/ha, evaluated after 13 days
Setaria faberi (SETFA) [6] = assay: Post-emergence Test, SETFA; conditions: sprayed after 8 days cultivation, 1000 g/ha, evaluated after 13 days
Method: as §1

[7] = system: Ipornoea hederacea (IPOHE); assay: Post-emergence Test, IPOHE; conditions: sprayed after 8 days cultivation, 1000 g/ha, evaluated after 13 days
Method: as §1

ABUTH [8] = assay: Post-emergence Test, ABUTH; conditions: sprayed after 8 days cultivation, 1000 g/ha, evaluated after 13 days
Method: [The procedure below names another target; the source lists this target under the same test.] as §1

ZEAMX [9] = assay: Pre-emergence Test, ZEAMX; conditions: 1000 g/ha, evaluated after 13 days
[10] = system: Ipornoea hederacea (IPOHE); assay: Pre-emergence Test, IPOHE; conditions: 1000 g/ha, evaluated after 13 days
[11] = system: Amaranthus retoflexus (AMARE); assay: Post-emergence Test, AMARE; conditions: sprayed after 8 days cultivation, 1000 g/ha, evaluated after 13 days
Method: as §1

ZEAMX [12] = assay: Post-emergence Test, ZEAMX; conditions: sprayed after 8 days cultivation, 1000 g/ha, evaluated after 13 days
Method: [The procedure below names another target; the source lists this target under the same test.] as §1

Structure (SMILES) | percentage damage caused to the plant, ECHCG [1] | percentage damage caused to the plant, AMARE [2] | percentage damage caused to the plant, ECHCG [3] | percentage damage caused to the plant, ABUTH (ABUTH [4]) | percentage damage caused to the plant, SETFA (Setaria faberi (SETFA) [5]) | percentage damage caused to the plant, SETFA (Setaria faberi (SETFA) [6]) | percentage damage caused to the plant, IPOHE [7] | percentage damage caused to the plant, ABUTH (ABUTH [8]) | percentage damage caused to the plant, ZEAMX (ZEAMX [9]) | percentage damage caused to the plant, IPOHE [10] | percentage damage caused to the plant, AMARE [11] | percentage damage caused to the plant, ZEAMX (ZEAMX [12])
CCOC(=O)c1nn(-c2ccc(OC(F)(F)F)cc2)c2cccc(N3CCOCC3)c2c1=O [Compound P26, ethyl 5-morpholino-4-oxo-1-[4-(trifluoromethoxy)phenyl] cinnoline-3-carboxylate] | 1 (1=10-20%) | 0 (0=0%) | 0 (0=0%) | 0 (0=0%) | 0 (0=0%) | 0 (0=0%) | 0 (0=0%) | 0 (0=0%) | 0 (0=0%) | 0 (0=0%) | 0 (0=0%) | 0 (0=0%)
O=C(O)c1nn(-c2ccc(OC(F)(F)F)cc2)c2cccc(N3CCCC3)c2c1=O [Compound P23, 4-oxo-5-pyrrolidin-1-yl-1-[4-(trifluoromethoxy)phenyl] cinnoline-3-carboxylic acid] | 0 (0=0%) | 0 (0=0%) | 0 (0=0%) | 0 (0=0%) | 0 (0=0%) | 0 (0=0%) | 0 (0=0%) | 0 (0=0%) | 0 (0=0%) | 0 (0=0%) | 0 (0=0%) | 0 (0=0%)
O=C(O)c1nn(-c2ccc(OC(F)(F)F)cc2)c2cccc(-n3cc(Cl)cn3)c2c1=O [Compound P19] | 3 (3=41-60%) | 0 (0=0%) | 3 (3=41-60%) | 0 (0=0%) | 4 (4=61-80%) | 4 (4=61-80%) | 2 (2=21-40%) | 1 (1=10-20%) | 1 (1=10-20%) | 0 (0=0%) | 2 (2=21-40%) | 2 (2=21-40%)
O=C(O)c1nn(-c2ccc(OC(F)(F)F)cc2)c2cccc(C(F)F)c2c1=O [Compound P37, 5-(difluoromethyl)-4-oxo-1-[4-(trifluoromethoxy)phenyl] cinnoline-3-carboxylic acid] | 2 (2=21-40%) | 0 (0=0%) | 0 (0=0%) | 0 (0=0%) | 0 (0=0%) | 2 (2=21-40%) | 1 (1=10-20%) | 0 (0=0%) | 0 (0=0%) | 0 (0=0%) | 1 (1=10-20%) | 1 (1=10-20%)
CCOC(=O)c1nn(-c2ccc(OC(F)(F)F)cc2)c2cccc(-n3cc(C(F)(F)F)cn3)c2c1=O [Compound P31, ethyl 4-oxo-1-[4-(trifluoromethoxy)phenyl]-5-[4-(trifluoromethyl)pyrazol-1-yl]cinnoline-3-carboxylate] | 0 (0=0%) | 0 (0=0%) | 0 (0=0%) | 0 (0=0%) | 0 (0=0%) | 0 (0=0%) | 0 (0=0%) | 0 (0=0%) | 0 (0=0%) | 0 (0=0%) | 0 (0=0%) | 0 (0=0%)

Source: US12649722B2, “Herbicidal cinnoline derivatives” (SYNGENTA CROP PROTECTION AG, priority 2020, dated 2026)
